The record followed here is ChEMBL document CHEMBL4052660, “The tobacco cembranoid (1S,2E,4S,7E,11E)-2,7,11-cembratriene-4,6-diol as a novel angiogenesis inhibitory lead for the control of breast malignancies” (Bioorg Med Chem, 2017).

For orientation: inhibition means the change of the read-out against control, counted positive when it falls.

Structures are written as SMILES. The source made the active and inactive calls. The rule behind the calls is not given here.

Data set [1] concerns the target Vascular endothelial growth factor receptor 2 (Homo sapiens) (UniProt P35968). Kind of data set: Inhibition of VEGFR2 in human MDA-MB-231 cells assessed as downregulation of phosphorylated FAK levels at 50 uM by Western blot analysis. In kind it is cell-based.
For data set [2] the target is unchanged. Kind of data set: Inhibition of VEGFR2 in human BT474 cells assessed as downregulation of phosphorylated paxillin levels at 20 uM by Western blot analysis. In kind it is cell-based. A general note: In western blotting, separated proteins are transferred to a membrane and probed.
Data set [3] has the same target. Kind of data set: Inhibition of VEGFR2 in human BT474 cells assessed as downregulation of phosphorylated FAK levels at 50 uM by Western blot analysis. In kind it is cell-based.
The target is the same in data set [4]. Kind of data set: Inhibition of VEGFR2 in human MDA-MB-231 cells assessed as reduction in Akt phosphorylation at 20 to 50 uM by Western blot analysis. In kind it is cell-based.
Data set [5] shares this target. Kind of data set: Inhibition of VEGFR2 in human MDA-MB-231 cells assessed as downregulation of phosphorylated FAK levels at 20 uM by Western blot analysis. In kind it is cell-based.
Data set [6] has the same target. Kind of data set: Inhibition of VEGFR2 in human MDA-MB-231 cells assessed as downregulation of phosphorylated paxillin levels at 20 uM by Western blot analysis. In kind it is cell-based.
Data set [7] relates to Serum. Kind of data set: Drug metabolism in athymic nude mouse serum assessed as monohydroxylated metabolite formation at 40 mg/kg, ip after 2 hrs by ES-MS analysis. In kind it is ADME, organism-based. To be noted: in vivo.
Data set [8] has as its target Vascular endothelial growth factor receptor 2 (Homo sapiens) (UniProt P35968). Kind of data set: Inhibition of VEGFR2 phosphorylation in human MDA-MB-231 cells at 50 uM by Western blot analysis. In kind it is cell-based.
The target is the same in data set [9]. Kind of data set: Inhibition of VEGFR2 in human MDA-MB-231 cells assessed as downregulation of phosphorylated paxillin levels at 50 uM by Western blot analysis. In kind it is cell-based.
For data set [10] the target is unchanged. Kind of data set: Inhibition of VEGFR2 in human BT474 cells assessed as reduction in PI3K phosphorylation at 20 to 50 uM by Western blot analysis. In kind it is cell-based.
In data set [11] the test system is Serum. Kind of data set: Drug metabolism in athymic nude mouse serum assessed as dihydroxylated metabolite formation at 40 mg/kg, ip after 2 hrs by ES-MS analysis. The conditions noted are these: in vivo. In kind it is ADME, organism-based.
For data set [12], the target named is Vascular endothelial growth factor receptor 2 (Homo sapiens) (UniProt P35968). Kind of data set: Inhibition of VEGFR2 in human BT474 cells assessed as reduction in Akt phosphorylation at 20 to 50 uM by Western blot analysis. In kind it is cell-based.
The test system of data set [13] is Serum. Kind of data set: Drug uptake in athymic nude mouse serum at 40 mg/kg, ip after 2 hrs by ES-MS analysis. In kind it is ADME, organism-based. To be noted: in vivo.
For data set [14], the target named is Vascular endothelial growth factor receptor 2 (Homo sapiens) (UniProt P35968). Kind of data set: Inhibition of VEGFR2 phosphorylation in human BT474 cells at 50 uM by Western blot analysis. In kind it is cell-based.
For data set [15] the target is unchanged. Kind of data set: Inhibition of VEGFR2 in human MDA-MB-231 cells assessed as reduction in PI3K phosphorylation at 20 to 50 uM by Western blot analysis. In kind it is cell-based.
The target is the same in data set [16]. Kind of data set: Inhibition of VEGFR2 phosphorylation in human MDA-MB-231 cells at 20 uM by Western blot analysis. In kind it is cell-based.
Data set [17] shares this target. Kind of data set: Inhibition of VEGFR2 phosphorylation in human BT474 cells at 20 uM by Western blot analysis. In kind it is cell-based.
For data set [18] the target is unchanged. Kind of data set: Inhibition of VEGFR2 in human BT474 cells assessed as downregulation of phosphorylated paxillin levels at 50 uM by Western blot analysis. In kind it is cell-based.
Data set [19] shares this target. Kind of data set: Inhibition of VEGFR2 in human BT474 cells assessed as downregulation of phosphorylated FAK levels at 20 uM by Western blot analysis. In kind it is cell-based.
In a further data set the test system is Mus musculus. Kind of data set: Antiangiogenic activity in matrigel injected Swiss albino mouse assessed as reduction in hemoglobin content in matrigel plug at 2.5 mg/kg, ip every other day for 20 days by matrigel assay. In kind it is functional. Set-up: scale not given: the % may be the effect or the level left.

Vascular endothelial growth factor receptor 2 (Homo sapiens), sequence (P35968 whole entry): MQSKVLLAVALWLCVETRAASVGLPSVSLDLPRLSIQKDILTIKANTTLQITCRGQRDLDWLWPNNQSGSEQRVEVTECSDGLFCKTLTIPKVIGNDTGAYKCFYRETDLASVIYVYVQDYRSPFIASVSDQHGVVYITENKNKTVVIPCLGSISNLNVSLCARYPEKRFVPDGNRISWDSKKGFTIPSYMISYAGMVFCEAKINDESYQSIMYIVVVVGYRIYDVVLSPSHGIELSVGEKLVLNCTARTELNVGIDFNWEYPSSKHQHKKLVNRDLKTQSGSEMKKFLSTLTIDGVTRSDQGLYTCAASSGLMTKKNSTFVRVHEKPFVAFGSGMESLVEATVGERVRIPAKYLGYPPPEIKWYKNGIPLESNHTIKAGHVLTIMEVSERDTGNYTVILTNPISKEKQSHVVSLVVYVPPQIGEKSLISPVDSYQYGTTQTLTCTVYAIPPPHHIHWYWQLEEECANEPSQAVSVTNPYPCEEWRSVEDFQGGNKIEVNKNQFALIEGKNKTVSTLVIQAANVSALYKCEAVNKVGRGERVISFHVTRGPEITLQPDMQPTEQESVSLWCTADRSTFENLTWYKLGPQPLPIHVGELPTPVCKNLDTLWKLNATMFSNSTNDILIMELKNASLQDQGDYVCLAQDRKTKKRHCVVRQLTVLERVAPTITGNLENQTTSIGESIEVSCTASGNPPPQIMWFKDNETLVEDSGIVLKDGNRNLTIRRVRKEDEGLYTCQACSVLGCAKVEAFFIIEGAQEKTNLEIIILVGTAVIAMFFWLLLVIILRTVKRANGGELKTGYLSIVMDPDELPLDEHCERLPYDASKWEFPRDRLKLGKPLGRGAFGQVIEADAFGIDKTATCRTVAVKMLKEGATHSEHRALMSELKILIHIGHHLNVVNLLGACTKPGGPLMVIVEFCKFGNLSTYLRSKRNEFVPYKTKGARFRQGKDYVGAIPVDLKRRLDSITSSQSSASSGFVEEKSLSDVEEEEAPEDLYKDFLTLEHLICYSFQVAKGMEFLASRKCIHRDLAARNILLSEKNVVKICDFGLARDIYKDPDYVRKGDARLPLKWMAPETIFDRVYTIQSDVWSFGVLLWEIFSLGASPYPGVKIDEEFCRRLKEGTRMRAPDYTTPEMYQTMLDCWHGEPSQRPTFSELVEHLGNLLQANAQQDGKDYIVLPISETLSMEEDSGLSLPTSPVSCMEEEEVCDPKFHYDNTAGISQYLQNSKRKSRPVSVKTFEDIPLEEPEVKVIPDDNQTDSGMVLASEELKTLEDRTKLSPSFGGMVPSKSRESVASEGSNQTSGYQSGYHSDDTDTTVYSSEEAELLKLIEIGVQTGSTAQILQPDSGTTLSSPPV

For the molecule `C/C1=C\[C@H](O)C[C@](C)(O)/C=C/[C@H](C(C)C)CC/C(C)=C/CC1`, the inhibition in data set [1] worked out at 41.3%; in data set [2], 70.9%; in [3], 74.8%; in [5], 26%; in data set [6] it was 58.7%; in data set [8] it was 65.3%. The inhibition in [9] stood at 96.1%; in data set [14] it was 58.6%; in data set [16], 60.6%; in [17], 43.1%; in data set [18], 82.1%; in [19], 48.9%. Also, the inhibition result in [4], in [10], in data set [12] and in [15] was “inactive” throughout. The Drug metabolism entry in the data set with Serum [7] and in the data set with Serum [11] was “Metabolite_Detected” each time. Moreover, in the data set with Serum [13], the Drug uptake entry is reported as “Active”.
`CCN(CC)CCNC(=O)c1c(C)[nH]c(/C=C2\C(=O)Nc3ccc(F)cc32)c1C` [SUNITINIB]: the Activity in the data set with Mus musculus is reported as 80%.
